Source: publication PMC7004409 (PLoS Pathogens, 2020)

Key:
Format in all cases: biochemical
[1] = biological target: T1, BIV GagΔMA (Bovine immunodeficiency virus R29, UniProt P19558); conditions: 50 mM MES pH 6.5, 100 mM NaCl, GT50 oligo, dilution, 22 °C
T1 construct: gene gag; Gag lacking MA; SUMO-tag purification

[2] = biological target: T2, HIV-2 GagΔMA (Human immunodeficiency virus type 2 (ISOLATE ROD), UniProt P04590); conditions: 50 mM Tris pH 8, 100 mM NaCl, GT25 oligo, dialysis, 22 °C
T2 construct: gene gag; Gag lacking MA; SUMO-tag purification

[3] = biological target: T3, FIV GagΔMA (Feline immunodeficiency virus (isolate Petaluma), UniProt P16087); conditions: 50 mM Bis-Tris propane, 150 mM NaCl, GT50 oligo, dilution, 22 °C
T3 construct: gene gag; Gag lacking MA; SUMO-tag purification

[4] = biological target: T4, SIV GagΔMA (Simian immunodeficiency virus (MM251 ISOLATE), UniProt P05893); conditions: 50 mM Tris pH 8, 100 mM NaCl, GT25 oligo, dialysis, 22 °C
T4 construct: gene gag; Gag lacking MA; SUMO-tag purification

[5] = biological target: T5, HIV-1 GagΔMA (GagΔMAΔp1Δp6) (Human immunodeficiency virus type 1 (NEW YORK-5 ISOLATE), UniProt P12493); conditions: GT25 oligo, pH 6
T5 construct: gene gag; Gag lacking MA, p1 and p6 (CA-SP1-NC); SUMO-tag purification, E. coli

Row | SMILES | VLP number with / without IP6 [1] | VLP number with / without IP6 [2] | VLP number with / without IP6 [3] | VLP number with / without IP6 [4] | fold increase of round VLPs at 10 μM [5]
1 | O=P(O)(O)O[C@H]1[C@H](OP(=O)(O)O)[C@@H](OP(=O)(O)O)[C@H](OP(=O)(O)O)[C@@H](OP(=O)(O)O)[C@H]1OP(=O)(O)O [IP6] | in the presence of IP6, spherical VLP assembly consistent with an immature lattice was observed | in the presence of IP6, spherical VLP assembly consistent with an immature lattice was observed | in the presence of IP6, spherical VLP assembly consistent with an immature lattice was observed | in the presence of IP6, spherical VLP assembly consistent with an immature lattice was observed | 
2 | O=P(O)(O)O[C@@H]1[C@@H](OP(=O)(O)O)[C@H](OP(=O)(O)O)[C@H](O)[C@H](OP(=O)(O)O)[C@H]1OP(=O)(O)O [IP5] |  |  |  |  | 1000 fold
